Experiment [1] concerns RPE layer (retinal pigmented epithelium). In words: Immunofluorescence (RPE65) for assessing damage of the retinal pigment epithelium in the NalO3-induced mouse model of macular degeneration. The settings on record: for protection of the retina from NalO3-induced damage of the cells of the RPE layer (in words): NalO3 mouse model, eye drops; for reduction of the NalO3-induced damage on the RPE layer compared to V2 (RPE65 staining intensity): eye drops 5 μl of 10 mM solution, 60 min before NalO3 (20 mg/kg, retro-orbital vein) then 3 times a day, retina collected day 4, mean±SEM, P<0.01 vs. V2/NalO3. The class given is in vivo, C57BL/6J male mice. How it is done:
(§1) To create a valid model of macular degeneration, the systemic administration (via the retro-orbital vein) of NalO3 was carried out in C57BL/6J male mice aged 5-8 weeks and weighing 22-25 g supplied by the Charles River company (Milan, Italy). In order to carry out the experiments described below, a total of 36 mice were used. The animals were kept in a temperature and humidity-controlled environment (12-hour dark/light cycle, free access to food and water). The experiments were performed in a temperature-controlled room (20 to 22° C.) between 8:00 and 20:00. At the end of the experiment, the animals were euthanized by inhalation of a mixture of 50% O2/50% CO2 for 1 minute. The NalO3, DMSO, Tween 80 and NaCl 0.9% reagents used in the study were purchased from Merck Life Science SRL (Milan, Italy).
(§2) The mice were administered locally, through eye drops, the compounds indicated above or their vehicle consisting of 4% DMSO, 4% Tween 80 in 0.9% NaCl.
(§3) In particular, a group of 6 mice (used as a control) was administered by instillation, 60 minutes before the injection into the retro-orbital vein (1 ml/kg) of the vehicle (V1) (NaCl, 0.9%) of NalO3 and subsequently 3 times a day, eye drops (5 μl) containing the vehicle (V2) (4% DMSO, 4% Tween 80 in NaCl 0.9%) of the drugs.
(§4) Another 30 mice received, in groups of 6 mice each, 60 minutes before the injection into the retro-orbital vein (1 ml/kg) of NalO3 (1%, 20 mg/kg) and subsequently 3 times a day, eye drops (5 μl) of a 10 mM solution of the above-mentioned compounds FN-005, FN-006, FN-007, FN-008 or their vehicle (V2) (4% DMSO, 4% Tween 80 in 0.9% NaCl) by instillation.
(§5) For each group of mice, the first administration (day 1) of the compound of formula (IV), of the compound of formula (I), of the compound of formula (II) and of the compound of formula (III) or of the vehicle (V2) was performed 60 minutes before the injection of NalO3 or its vehicle (V1) and the second and third administration were performed 6 and 12 hours after the injection of vehicle (V1) or NalO3, respectively. On the two days (day 2 and day 3) following the injection of vehicle (V1) or NalO3, the compounds of formula (IV), (I), (II), and (III) or vehicle (V2) were administered to the various groups of mice at 8:00, 14:00 and 20:00.
(§6) At 09:00 on day 4 after the treatment with vehicle (V1) or NalO3 the mice given the compounds indicated above as FN-005, FN-006, FN-007, FN-008 or their vehicle (V2) were sacrificed (as previously reported) and the eyeballs were enucleated and processed for subsequent analysis of the damage.
Direct immunofluorescence was used to assess damage to the RPE (retinal pigmented epithelium), which corresponds to the layer of pigmented cells immediately adjacent to the neurosensory retina which nourishes the visual cells of the retina, and is firmly attached to the underlying choroid and the overlying visual retinal cells.
The staining intensity of the RPE layer was quantified using a primary antibody (RPE65, #ab13826, mouse monoclonal, 1:100, Abcam, Cambridge, UK) to which a second fluorophore-labelled antibody (Alexa Fluor 488, #A28175, Thermo Fisher Scientific) binds in the 6 groups of mice treated with V2/V1, V2/NalO3, with the compound of formula (IV) and NalO3 (FN-005/NalO3), with the compound of formula (I) of polycyclic heteroaromatic derivatives and NalO3 (FN-006/NalO3), with the compound of formula (II) and NalO3 (FN-007/NalO3) and with the compound of formula (III) and NalO3 (FN-008/NalO3). Cell nuclei were visualized using the DAPI organic dye (#ab228549, Abcam, Cambridge, UK).
The data relating to the fluorescence intensity value are presented for each treatment as mean±SEM. *p<0.05 vs V1/V2; § p<0.05 vs NalO3 in FIG. 1B. Statistical analysis using one-way analysis of variance (ANOVA) test and Bonferroni test.

For another experiment, the system named is 4-hydroxynonenal (4-HNE). In words: Assessment of oxidative stress at the retinal level (4-HNE immunofluorescence) in the NalO3-induced mouse model of macular degeneration. Conditions: for protection of the retina from the NalO3-induced increase of 4-HNE (in words): NalO3 mouse model, eye drops; for reduction of the retinal levels of 4-HNE (immunofluorescence): eye drops 5 μl of 10 mM solution, 60 min before NalO3 (20 mg/kg, retro-orbital vein) then 3 times a day, retina collected day 4, mean±SEM, P<0.01 vs. V2/NalO3. The format is in vivo, C57BL/6J male mice. Here is the method:
as §1, §2, §3, §4, §5, §6
The level of oxidative stress was also assessed throughout the thickness of the retina by measuring the immunofluorescence intensity for the reactive carbonyl species, 4-hydroxynonenal (4-HNE), a final indicator of oxidative stress.
Levels of 4-HNE were quantified using a primary antibody (#ab48506, monoclonal mouse [HNEJ-2], 1:40, Abcam, Cambridge, UK) to which a second fluorophore-labelled antibody (Alexa Fluor 594, #A A32742, Thermo Fisher Scientific) binds in the 6 groups of mice treated as described above.
Cell nuclei were visualized using the DAPI organic dye (#ab228549, Abcam, Cambridge, UK).
The data relating to the fluorescence intensity value are presented for each treatment as mean±SEM. *p<0.05 vs V1/V2; § p<0.05 vs NalO3 in FIG. 2B. Statistical analysis using one-way analysis of variance (ANOVA) test and Bonferroni test.

For `COCCCOc1cccc([C@H]2NC(=S)NC3=C2C(=O)c2ccccc23)c1` [compound of formula (II)], in experiment [1], the “protection of the retina from NalO3-induced damage of the cells of the RPE layer (in words)” value is given as “particularly effective in protecting the retina” and the “reduction of the NalO3-induced damage on the RPE layer compared to V2 (RPE65 staining intensity)” value was determined as 60.0±12.8%. In the experiment with 4-hydroxynonenal (4-HNE), the “protection of the retina from the NalO3-induced increase of 4-HNE (in words)” value is given as “protected the retina” and the “reduction of the retinal levels of 4-HNE (immunofluorescence)” value is listed as 50.32±6.30%.
In the same order, the values of `Cc1cc2[nH]ncc2cc1-c1ccccc1C(F)(F)F` [compound of formula (III)] are “particularly effective in protecting the retina”, 96.8±20.0%, “protected the retina” and 62.10±7.55%.
For `C[C@H]1[C@H](F)C[C@@H](C(=O)NCc2cc(-c3cnc(C(F)(F)F)nc3)ncc2C(F)(F)F)N1S(=O)(=O)c1ccc(F)cc1` [compound of formula (IV)], in that order: “particularly effective in protecting the retina”, 84.5±33%, “protected the retina” and 64.16±17.51%.

(Values after patent US20240285623A1, “TRPA1 CHANNEL ANTAGONIST COMPOUND FOR USE IN DEGENERATIVE RETINAL DISEASES” (FLONEXT S.R.L., priority 2021, published 2024).)
